# Reference: publication PMC10362580, “Patient-derived organoids for precision oncology: a platform to facilitate clinical decision making” (BMC Cancer, 2023)
# What was measured:
# [1] = test system: iPSCs-derived hepatocytes; assay: Cytoskeleton disruption in hepatocytes (hepatotoxicity); assay type: cell-based, human; conditions: 0.1 ug/ml; hepatocytes from healthy donors, breast cancer and ovarian cancer patients
# Experimental: To initiate hepatic differentiation, 10, 000 cells/cm^2 of passage 11 (P11) single cell suspension of iPSCs were seeded on matrigel coated plates in mTeSR™1 media and incubated overnight to obtain 95% confluent culture. Once cells reached > 95% confluence, RPMI media (Gibco) + 2% B27 supplement (Gibco) + 100 ng/ml Activin A (Gibco) + 3 µM CHIR99021 (Stem Cell Technologies) + 2% Matrigel (Corning) was added. Day 1 to 4: RPMI (Gibco) media + 2% B27 supplement (Gibco) + 100 ng/ml Activin A (Sigma). Day 5 to 10: RPMI (Gibco) media + 2% B27 supplement (Gibco) + 10 ng/ml bFGF (Sigma) + 20 ng/ml BMP4 (Sigma) + 0.5% DMSO (Sigma); Day 11 to 15: RPMI 1648 (Gibco) media + 2% B27 supplement (Gibco) + 20 ng/ml HGF (Sigma) + 0.5% DMSO (Sigma); Day 16 to 21: RPMI 1648 (Gibco) media + 2% B27 supplement (Gibco) + 20 ng/ml Oncostatin M (Gibco) + 100 nM Dexamethasone + 20 ng/ml HGF (Sigma) + 0.5% DMSO (Sigma). […] The presence of intracellular glycogen in hepatocytes was assessed by periodic acid–Schiff’s (PAS) staining and nuclei were counterstained with Mayer’s haematoxylin [42]. […]
# [2] = test system: Normal Organoid from normal adjacent tissue of ovarian cancer patients; assay: PDO drug sensitivity and resistance testing (CellTiter-Glo), ovarian normal adjacent tissue organoids; assay type: cell-based; conditions: Homo sapiens
# Experimental: (§1) Patient-derived tumor organoid was dissociated to single cells after seven days in culture. Epithelial Cells (from tumor and adjacent normal tissues) in combination with patient-derived isogenic adipose-derived Mesenchymal Stem Cells: iECs: MSCs (3:1:1) were seeded at a density of 5000 cells per well in 96-well clear bottom microplates. Multicellular organoids were allowed to grow for seven days. Breast and ovarian organoids were imaged every day and fed every alternate day with aforementioned Breast organoid medium and Ovarian organoid medium respectively. […] Organoids were subsequently incubated for […]; DMSO only- vehicle control and media only- negative control was used to set the baseline. After 0, 1, 7, 14 and 21 days ATP levels were measured with the CellTiter-Glo (Promega, Wisconsin, USA). All screenings were performed in triplicates. Data were analyzed using GraphPad Prism 6. Drug dose–response curves were visualized using […] analysis [setting: log (inhibitor) versus response, least-squares (ordinary) fit; top constraint 100%]. Concentrations where 50% cell viability (IC50-value) was reached were interpolated. The area under the curve (AUC) was approximated between the lowest and highest concentrations screened in the actual assay with the trapezoid rule for numerical integration. The dose–response curves were plotted as the percentage of the cell viability against the logarithm of drug concentrations in µM and were fitted to estimate the IC50.
# (§2) We developed a protocol to culture and expand organoids from tissues collected from ovarian cancer patients. […] We performed drug sensitivity and resistance test (DSRT) using 2 FDA-approved commonly used therapeutic drugs paclitaxel and doxorubicin. Depending on the properties of the individual drugs, the concentrations ranged from 0.001 µM to 1000 µM (Fig. 6).
# (§3) Following seven days incubation, organoid cultures were manually inspected using a phase-contrast microscope to check cell health and morphology prior to the addition of drugs. CellTiter-Glo® 2.0 determines the number of viable cells in a well, based on the quantification of ATP present, an indicator of metabolically viable cells. Total cell count was measured by CellTiter-Glo® 2.0, which causes cell lysis and produces a luminescence signal proportional to the amount of ATP present. Following completion of the above quality metrics, the data was normalized or the raw intensity data was used for curve-fitting. • Data normalization: Normalization was completed using the following calculation: (Raw intensity signal- Mean of positive control/ Mean of negative control-Mean positive control)
# [3] = test system: patient-derived primary ovarian cancer organoids (Tumor Organoid); assay: PDO drug sensitivity and resistance testing (CellTiter-Glo), ovarian tumor organoids; assay type: cell-based, human; conditions: for IC50: Homo sapiens; for Viability of organoids (CTG assay): ovarian cancer organoids
# Experimental: as §1, §2, §3
# [4] = test system: patient-derived breast cancer organoids (Tumor Organoid); assay: PDO drug sensitivity and resistance testing (CellTiter-Glo), breast tumor organoids; assay type: cell-based, human; conditions: for IC50: Homo sapiens; for Viability of organoids (CTG assay): breast cancer organoids; for Response of breast cancer PDOs to treatment: few breast cancer PDOs
# Experimental: as §1
# (§4) We investigated BC organoids in response to standard medications in order to assess their potential as in vitro disease models. Towards this, PDOs were treated with doxorubicin and paclitaxel (commonly used chemotherapeutic drugs).
# as §3
# [5] = test system: Normal Organoid from normal adjacent tissue of breast cancer patients; assay: PDO drug sensitivity and resistance testing (CellTiter-Glo), breast normal adjacent tissue organoids; assay type: cell-based; conditions: Homo sapiens
# Experimental: as §1, §4, §3
# [6] = test system: iPSCs-derived forebrain motor neurons; assay: Neurite outgrowth assay (neurotoxicity); conditions: 1 µM; neurons from healthy donor, breast cancer and ovarian cancer patient
# Experimental: Neurite outgrowth assay was performed to determine neurotoxicity. […] We tested neurotoxic chemotherapeutic drug on iPSC-derived neurons- control (healthy donor), breast cancer and ovarian cancer patients [46–48] using ImageXpress® Nano Automated Imaging System (Molecular Devices).
# [7] = test system: iPSCs-derived cardiomyocytes; assay: Calcium transient assay (cardiotoxicity); assay type: cell-based, human; conditions: 1 µM; cardiomyocytes from healthy donor, breast cancer and ovarian cancer patient
# Experimental: To initiate cardiac differentiation, 10,000 cells/cm^2 of passage 11–20 single cell suspension of iPSCs were seeded on matrigel coated plates in mTeSR™1 media and incubated overnight to obtain 95% confluent culture. Once cells reached > 95% confluence, RPMI 1648 medium (Gibco)/B-27 Supplement Minus Insulin (Gibco)/ 100 ng/ml Activin A (Gibco) + Matrigel (Corning) + […] CHIR9902 (Stem Cell Technologies) was added. CHIR9902 only for 24 h. Day 02–04: RPMI 1648 medium (Gibco)/B-27 Supplement Minus Insulin (Gibco)/ activin A (Gibco) (100 ng/ml) and BMP4 (Gibco) (10 ng/ml) and bFGF. Day 05–06: RPMI 1640 (with L-glutamine) with 2% B27 minus insulin supplement, 1 µl IWR-1 (5 µM final). Day 07–09: RPMI 1640 with L-Glutamine (Gibco) with 2% B27 with insulin supplement (Gibco). Day10: At day 10 post-differentiation, changed the medium to RPMI 1648-low glucose medium (Gibco) and maintained the cells in this medium for 3 days (until day 13). Day 13: Returned cells to RPMI/B27 medium-with insulin (Gibco). At day 14, changed the medium back to RPMI-low glucose medium (Gibco) for a second glucose deprivation cycle. Cultured the cells in this low glucose state for 3 more days. Most of the non-cardiomyocytes will die in this low-glucose culture condition. At day 17, changed the medium to 2 ml of RPMI/B27 medium with insulin. The remaining cells will be highly purified cardiomyocytes. […]
# [8] = 168 h, Ovarian Cancer Sample 1, Normal Organoid, day 7, CTG
# [9] = 168 h, Ovarian Cancer Sample 2, Normal Organoid, day 7, CTG
# [10] = 168 h, Ovarian Cancer Sample 3, Normal Organoid, day 7, CTG
# [11] = 336 h, Ovarian Cancer Sample 1, Normal Organoid, day 14, CTG
# [12] = 336 h, Ovarian Cancer Sample 2, Normal Organoid, day 14, CTG
# [13] = 336 h, Ovarian Cancer Sample 3, Normal Organoid, day 14, CTG
# [14] = 504 h, Ovarian Cancer Sample 1, Normal Organoid, day 21, CTG
# [15] = 504 h, Ovarian Cancer Sample 2, Normal Organoid, day 21, CTG
# [16] = 504 h, Ovarian Cancer Sample 3, Normal Organoid, day 21, CTG
# [17] = 168 h, Ovarian Cancer Sample 1, Tumor Organoid, day 7, CTG
# [18] = 168 h, Ovarian Cancer Sample 2, Tumor Organoid, day 7, CTG
# [19] = 168 h, Ovarian Cancer Sample 3, Tumor Organoid, day 7, CTG
# [20] = 336 h, Ovarian Cancer Sample 1, Tumor Organoid, day 14, CTG
# [21] = 336 h, Ovarian Cancer Sample 2, Tumor Organoid, day 14, CTG
# [22] = 336 h, Ovarian Cancer Sample 3, Tumor Organoid, day 14, CTG
# [23] = 504 h, Ovarian Cancer Sample 1, Tumor Organoid, day 21, CTG
# [24] = 504 h, Ovarian Cancer Sample 2, Tumor Organoid, day 21, CTG
# [25] = 504 h, Ovarian Cancer Sample 3, Tumor Organoid, day 21, CTG
# [26] = 168 h, Breast Cancer Sample 1, Tumor Organoid, day 7, CTG
# [27] = 168 h, Breast Cancer Sample 2, Tumor Organoid, day 7, CTG
# [28] = 168 h, Breast Cancer Sample 3, Tumor Organoid, day 7, CTG
# [29] = 336 h, Breast Cancer Sample 1, Tumor Organoid, day 14, CTG
# [30] = 336 h, Breast Cancer Sample 2, Tumor Organoid, day 14, CTG
# [31] = 336 h, Breast Cancer Sample 3, Tumor Organoid, day 14, CTG
# [32] = 504 h, Breast Cancer Sample 1, Tumor Organoid, day 21, CTG
# [33] = 504 h, Breast Cancer Sample 2, Tumor Organoid, day 21, CTG
# [34] = 504 h, Breast Cancer Sample 3, Tumor Organoid, day 21, CTG
# [35] = 168 h, Breast Cancer Sample 1, Normal Organoid, day 7, CTG
# [36] = 168 h, Breast Cancer Sample 2, Normal Organoid, day 7, CTG
# [37] = 168 h, Breast Cancer Sample 3, Normal Organoid, day 7, CTG
# [38] = 336 h, Breast Cancer Sample 1, Normal Organoid, day 14, CTG
# [39] = 336 h, Breast Cancer Sample 2, Normal Organoid, day 14, CTG
# [40] = 336 h, Breast Cancer Sample 3, Normal Organoid, day 14, CTG
# [41] = 504 h, Breast Cancer Sample 1, Normal Organoid, day 21, CTG
# [42] = 504 h, Breast Cancer Sample 2, Normal Organoid, day 21, CTG
# [43] = 504 h, Breast Cancer Sample 3, Normal Organoid, day 21, CTG
smiles,measurement,setting,value
C/C1=C/C(=O)O[C@@H]2C[C@@H](CC[C@H](C)/C=C\C=C\CC1)O[C@@](O)([C@@H]1CSC(=O)N1)C2 [Latrunculin a],"Cytoskeleton disruption sensitivity, donor comparison",[1],Ovarian cancer patient’s hepatocytes were found more sensitive to Latrunculin followed by breast cancer patient and healthy donor
CC(=O)O[C@H]1C(=O)[C@@]2(C)[C@H]([C@H](OC(=O)c3ccccc3)[C@]3(O)C[C@H](OC(=O)[C@H](O)[C@@H](NC(=O)c4ccccc4)c4ccccc4)C(C)=C1C3(C)C)[C@]1(OC(C)=O)CO[C@@H]1C[C@@H]2O [Paclitaxel],IC50,[2]; [8],22.7 µM
same,IC50,[2]; [9],1240 µM
same,IC50,[2]; [10],2120 µM
same,IC50,[2]; [11],0.625 µM
same,IC50,[2]; [12],76.7 µM
same,IC50,[2]; [13],1010 µM
same,IC50,[2]; [14],0.617 µM
same,IC50,[2]; [15],89 µM
same,IC50,[2]; [16],97.6 µM
same,IC50,[3]; [17],16.7 µM
same,IC50,[3]; [18],940 µM
same,IC50,[3]; [19],2020 µM
same,IC50,[3]; [20],20 µM
same,IC50,[3]; [21],96 µM
same,IC50,[3]; [22],945 µM
same,IC50,[3]; [23],0.588 µM
same,IC50,[3]; [24],9.74 µM
same,IC50,[3]; [25],97.6 µM
same,Viability of organoids (CTG assay),[3],significantly decreased the viability of organoids
same,IC50,[4]; [26],83.6 µM
same,IC50,[4]; [27],874 µM
same,IC50,[4]; [28],849 µM
same,IC50,[4]; [29],96.4 µM
same,IC50,[4]; [30],103 µM
same,IC50,[4]; [31],975 µM
same,IC50,[4]; [32],94.9 µM
same,IC50,[4]; [33],107 µM
same,IC50,[4]; [34],8.95 µM
same,Viability of organoids (CTG assay),[4],significantly decreased the viability of organoids
same,Response of breast cancer PDOs to treatment,[4],sensitive
same,IC50,[5]; [35],7.89 µM
same,IC50,[5]; [36],947 µM
same,IC50,[5]; [37],95.1 µM
same,IC50,[5]; [38],8.53 µM
same,IC50,[5]; [39],980 µM
same,IC50,[5]; [40],100 µM
same,IC50,[5]; [41],0.955 µM
same,IC50,[5]; [42],1000 µM
same,IC50,[5]; [43],10.2 µM
same,"Neurite outgrowth sensitivity, donor comparison",[6],Ovarian cancer patient’s neurons were found more sensitive to paclitaxel followed by breast cancer patient and healthy donor
COc1cccc2c1C(=O)c1c(O)c3c(c(O)c1C2=O)C[C@@](O)(C(=O)CO)C[C@@H]3O[C@H]1C[C@H](N)[C@H](O)[C@H](C)O1 [Doxorubicin],IC50,[2]; [8],96.2 µM
same,IC50,[2]; [9],2340 µM
same,IC50,[2]; [10],102 µM
same,IC50,[2]; [11],8.92 µM
same,IC50,[2]; [12],2250 µM
same,IC50,[2]; [13],8.89 µM
same,IC50,[2]; [14],0.0119 µM
same,IC50,[2]; [15],1160 µM
same,IC50,[2]; [16],9.29 µM
same,IC50,[3]; [17],847 µM
same,IC50,[3]; [18],2450 µM
same,IC50,[3]; [19],987 µM
same,IC50,[3]; [20],877 µM
same,IC50,[3]; [21],2210 µM
same,IC50,[3]; [22],1040 µM
same,IC50,[3]; [23],1.02 µM
same,IC50,[3]; [24],1930 µM
same,IC50,[3]; [25],98.1 µM
same,Viability of organoids (CTG assay),[3],significantly decreased the viability of organoids
same,IC50,[4]; [26],902 µM
same,IC50,[4]; [27],976 µM
same,IC50,[4]; [28],938 µM
same,IC50,[4]; [29],117 µM
same,IC50,[4]; [30],1060 µM
same,IC50,[4]; [31],92.2 µM
same,IC50,[4]; [32],125 µM
same,IC50,[4]; [33],97.6 µM
same,IC50,[4]; [34],9.55 µM
same,Viability of organoids (CTG assay),[4],significantly decreased the viability of organoids
same,Response of breast cancer PDOs to treatment,[4],resistant
same,"Calcium oscillation/contraction pattern sensitivity, donor comparison",[7],Ovarian cancer patient’s cardiomyocytes was found more sensitive to Doxorubicin followed by breast cancer patient and healthy donor
same,IC50,[5]; [35],96.6 µM
same,IC50,[5]; [36],859 µM
same,IC50,[5]; [37],955 µM
same,IC50,[5]; [38],92 µM
same,IC50,[5]; [39],1010 µM
same,IC50,[5]; [40],96.4 µM
same,IC50,[5]; [41],0.955 µM
same,IC50,[5]; [42],9.53 µM
same,IC50,[5]; [43],10.2 µM
